# The NIST ThermoML archive (doi:10.1016/j.jct.2017.12.015)
# ± gives the expanded uncertainty stated by the source.
# Assays:
# [1] = refractive index (Na D-line) (dimensionless); settings: 298 K; 101.33 kPa; Liquid; Standard Abbe refractometry
# [2] = Liquid, Ebulliometric method (Recirculating still)
smiles,measurement,setting,value
O=Cc1ccco1 [2-furaldehyde],refractive index,[1],1.52364 ± 0.001
CC1CCCO1 (configuration not stated) [2-methyltetrahydrofuran],vapor or sublimation pressure,[2]; 323.22 K,36.4 ± 0.3 kPa
same,vapor or sublimation pressure,[2]; 327.67 K,43 ± 0.3 kPa
same,vapor or sublimation pressure,[2]; 337.97 K,62.1 ± 0.3 kPa
same,vapor or sublimation pressure,[2]; 341.54 K,70.1 ± 0.3 kPa
same,vapor or sublimation pressure,[2]; 347.21 K,84.4 ± 0.3 kPa
same,vapor or sublimation pressure,[2]; 350.53 K,93.8 ± 0.4 kPa
same,vapor or sublimation pressure,[2]; 352.84 K,100.8 ± 0.4 kPa
same,refractive index,[1],1.40299 ± 0.001
CC(=O)O [acetic acid],refractive index,[1],1.37203 ± 0.001
CC(C)=O [acetone],refractive index,[1],1.3555 ± 0.001
COC1CCCC1 [methoxycyclopentane],vapor or sublimation pressure,[2]; 340.92 K,29.4 ± 0.2 kPa
same,vapor or sublimation pressure,[2]; 345.38 K,34.6 ± 0.2 kPa
same,vapor or sublimation pressure,[2]; 350.4 K,41.4 ± 0.3 kPa
same,vapor or sublimation pressure,[2]; 356.3 K,50.7 ± 0.3 kPa
same,vapor or sublimation pressure,[2]; 363.57 K,64.4 ± 0.3 kPa
same,vapor or sublimation pressure,[2]; 366.69 K,71.1 ± 0.3 kPa
same,vapor or sublimation pressure,[2]; 369.78 K,78.3 ± 0.3 kPa
same,vapor or sublimation pressure,[2]; 374.39 K,90 ± 0.3 kPa
same,vapor or sublimation pressure,[2]; 377.89 K,99.8 ± 0.3 kPa
same,refractive index,[1],1.41833 ± 0.001
O [water],refractive index,[1],1.3325 ± 0.001
